Consider 1 compound from paper PMC4815908 (Bioorganic & medicinal chemistry letters, 2015).

The assay has as its system P. falciparum 3D7 (chloroquine-sensitive). As to the kind of experiment: in vitro growth inhibition assay, P. falciparum 3D7. Type of assay: cell-based. As to conditions: Plasmodium falciparum, 3D7, read-out: IC50 ± SEM 3D7.

In general, IC50 refers to the point on the concentration scale where inhibition reaches its midpoint. As for `[C-]#[N+]C(C)(C)C[C@@H]1C[C@H](C)[C@H]2CC[C@H](C)[C@@]3([N+]#[C-])CCC(=C)[C@@H]1[C@H]23` [compound 1, (−)-8,15-diisocyano-11(20)-amphilectene], the IC50 amounted to 1.2 nM.
